# Assay results reported in ChEMBL document CHEMBL1128651, “Preparation and in vitro activity of aryl ether derivatives of the FK-506 related immunosuppressive macrolides ascomycin and L-683,742” (Bioorg Med Chem Lett, 1995).
# pIC50: −log10 of the molar value.
# Test system: Murine T-cell line
# Assay: Inhibition of proliferation of PMA and Ionomycin stimulated murine T cells
# Type: functional, cell-based
# Conditions: Mus musculus
row,Compound,pIC50
1,CC[C@@H]1/C=C(\C)C[C@H](C)C[C@H](OC)[C@H]2O[C@@](O)(C(=O)C(=O)N3CCCC[C@H]3C(=O)O[C@H](/C(C)=C/[C@@H]3CC[C@@H](Oc4ccc(O)cc4)[C@H](OC)C3)[C@H](C)[C@@H](O)CC1=O)[C@H](C)C[C@@H]2OC,9.10
2,CC[C@@H]1/C=C(\C)C[C@H](C)C[C@H](OC)[C@H]2O[C@@](O)(C(=O)C(=O)N3CCCC[C@H]3C(=O)O[C@H](/C(C)=C/[C@@H]3CC[C@@H](Oc4ccccc4)[C@H](OC)C3)[C@H](C)[C@@H](O)CC1=O)[C@H](C)C[C@@H]2OC,8.27
3,CC[C@@H]1/C=C(\C)C[C@H](C)C[C@H](OC)[C@H]2O[C@@](O)(C(=O)C(=O)N3CCCC[C@H]3C(=O)O[C@H](/C(C)=C/[C@@H]3CC[C@@H](Oc4cc(C(F)(F)F)cc(C(F)(F)F)c4)[C@H](OC)C3)[C@H](C)[C@@H](O)CC1=O)[C@H](C)C[C@@H]2OC,6.22
4,CC[C@@H]1/C=C(\C)C[C@H](C)C[C@H](OC)[C@H]2O[C@@](O)(C(=O)C(=O)N3CCCC[C@H]3C(=O)O[C@H](/C(C)=C/[C@@H]3CC[C@@H](Oc4ccc(OC)cc4)[C@H](O)C3)[C@H](C)[C@@H](O)CC1=O)[C@H](C)C[C@@H]2OC,8.92
5,CC[C@@H]1/C=C(\C)C[C@H](C)C[C@H](OC)[C@H]2O[C@@](O)(C(=O)C(=O)N3CCCC[C@H]3C(=O)O[C@H](/C(C)=C/[C@@H]3CC[C@@H](Oc4ccc(C)cc4)[C@H](O)C3)[C@H](C)[C@@H](O)CC1=O)[C@H](C)C[C@@H]2OC,8.22
6,CC[C@@H]1/C=C(\C)C[C@H](C)C[C@H](OC)[C@H]2O[C@@](O)(C(=O)C(=O)N3CCCC[C@H]3C(=O)O[C@H](/C(C)=C/[C@@H]3CC[C@@H](O)[C@H](Oc4ccc(OC)cc4)C3)[C@H](C)[C@@H](O)CC1=O)[C@H](C)C[C@@H]2OC,9.05
7,CC[C@@H]1/C=C(\C)C[C@H](C)C[C@H](OC)[C@H]2O[C@@](O)(C(=O)C(=O)N3CCCC[C@H]3C(=O)O[C@H](/C(C)=C/[C@@H]3CC[C@@H](O)[C@H](Oc4ccc(C)cc4)C3)[C@H](C)[C@@H](O)CC1=O)[C@H](C)C[C@@H]2OC,8.59
8,CC[C@@H]1/C=C(\C)C[C@H](C)C[C@H](OC)[C@H]2O[C@@](O)(C(=O)C(=O)N3CCCC[C@H]3C(=O)O[C@H](/C(C)=C/[C@@H]3CC[C@@H](Oc4ccc(C)cc4)[C@H](OC)C3)[C@H](C)[C@@H](O)CC1=O)[C@H](C)C[C@@H]2OC,8.57
9,CC[C@@H]1/C=C(\C)C[C@H](C)C[C@H](OC)[C@H]2O[C@@](O)(C(=O)C(=O)N3CCCC[C@H]3C(=O)O[C@H](/C(C)=C/[C@@H]3CC[C@@H](Oc4cccc(O)c4)[C@H](OC)C3)[C@H](C)[C@@H](O)CC1=O)[C@H](C)C[C@@H]2OC,8.77
10,CC[C@@H]1/C=C(\C)C[C@H](C)C[C@H](OC)[C@H]2O[C@@](O)(C(=O)C(=O)N3CCCC[C@H]3C(=O)O[C@H](/C(C)=C/[C@@H]3CC[C@@H](O)[C@H](Oc4ccc(O)cc4)C3)[C@H](C)[C@@H](O)CC1=O)[C@H](C)C[C@@H]2OC,9.05
11,CC[C@@H]1/C=C(\C)C[C@H](C)C[C@H](OC)[C@H]2O[C@@](O)(C(=O)C(=O)N3CCCC[C@H]3C(=O)O[C@H](/C(C)=C/[C@@H]3CC[C@@H](O)[C@H](Oc4ccccc4)C3)[C@H](C)[C@@H](O)CC1=O)[C@H](C)C[C@@H]2OC,8.49
12,CC[C@@H]1/C=C(\C)C[C@H](C)C[C@H](OC)[C@H]2O[C@@](O)(C(=O)C(=O)N3CCCC[C@H]3C(=O)O[C@H](/C(C)=C/[C@@H]3CC[C@@H](Oc4cccc(C)c4)[C@H](OC)C3)[C@H](C)[C@@H](O)CC1=O)[C@H](C)C[C@@H]2OC,8.27
13,CC[C@@H]1/C=C(\C)C[C@H](C)C[C@H](OC)[C@H]2O[C@@](O)(C(=O)C(=O)N3CCCC[C@H]3C(=O)O[C@H](/C(C)=C/[C@@H]3CC[C@@H](Oc4ccc(O)cc4)[C@H](O)C3)[C@H](C)[C@@H](O)CC1=O)[C@H](C)C[C@@H]2OC,8.80
14,CC[C@@H]1/C=C(\C)C[C@H](C)C[C@H](OC)[C@H]2O[C@@](O)(C(=O)C(=O)N3CCCC[C@H]3C(=O)O[C@H](/C(C)=C/[C@@H]3CC[C@@H](O)[C@H](OC)C3)[C@H](C)[C@@H](O)CC1=O)[C@H](C)C[C@@H]2OC [ASCOMYCIN],9.16
15,CC[C@@H]1/C=C(\C)C[C@H](C)C[C@H](OC)[C@H]2O[C@@](O)(C(=O)C(=O)N3CCCC[C@H]3C(=O)O[C@H](/C(C)=C/[C@@H]3CC[C@@H](Oc4ccc(C(F)(F)F)cc4)[C@H](OC)C3)[C@H](C)[C@@H](O)CC1=O)[C@H](C)C[C@@H]2OC,7.45
16,CC[C@@H]1/C=C(\C)C[C@H](C)C[C@H](OC)[C@H]2O[C@@](O)(C(=O)C(=O)N3CCCC[C@H]3C(=O)O[C@H](/C(C)=C/[C@@H]3CC[C@@H](Oc4ccc(SC)cc4)[C@H](OC)C3)[C@H](C)[C@@H](O)CC1=O)[C@H](C)C[C@@H]2OC,8.59
17,CC[C@@H]1/C=C(\C)C[C@H](C)C[C@H](OC)[C@H]2O[C@@](O)(C(=O)C(=O)N3CCCC[C@H]3C(=O)O[C@H](/C(C)=C/[C@@H]3CC[C@@H](Oc4ccc(OC)cc4)[C@H](OC)C3)[C@H](C)[C@@H](O)CC1=O)[C@H](C)C[C@@H]2OC,8.85
18,CC[C@@H]1/C=C(\C)C[C@H](C)C[C@H](OC)[C@H]2O[C@@](O)(C(=O)C(=O)N3CCCC[C@H]3C(=O)O[C@H](/C(C)=C/[C@@H]3CC[C@@H](Oc4ccc(F)cc4)[C@H](OC)C3)[C@H](C)[C@@H](O)CC1=O)[C@H](C)C[C@@H]2OC,8.47
19,CC[C@@H]1/C=C(\C)C[C@H](C)C[C@H](OC)[C@H]2O[C@@](O)(C(=O)C(=O)N3CCCC[C@H]3C(=O)O[C@H](/C(C)=C/[C@@H]3CC[C@@H](O)[C@H](O)C3)[C@H](C)[C@@H](O)CC1=O)[C@H](C)C[C@@H]2OC,8.79
20,CC[C@@H]1/C=C(\C)C[C@H](C)C[C@H](OC)[C@H]2O[C@@](O)(C(=O)C(=O)N3CCCC[C@H]3C(=O)O[C@H](/C(C)=C/[C@@H]3CC[C@@H](Oc4ccccc4)[C@H](O)C3)[C@H](C)[C@@H](O)CC1=O)[C@H](C)C[C@@H]2OC,8.28
21,CC[C@@H]1/C=C(\C)C[C@H](C)C[C@H](OC)[C@H]2O[C@@](O)(C(=O)C(=O)N3CCCC[C@H]3C(=O)O[C@H](/C(C)=C/[C@@H]3CC[C@@H](Oc4cccc(OC)c4)[C@H](OC)C3)[C@H](C)[C@@H](O)CC1=O)[C@H](C)C[C@@H]2OC,8.47
22,CC[C@@H]1/C=C(\C)C[C@H](C)C[C@H](OC)[C@H]2O[C@@](O)(C(=O)C(=O)N3CCCC[C@H]3C(=O)O[C@H](/C(C)=C/[C@@H]3CC[C@@H](Oc4ccc(N(C)C)cc4)[C@H](OC)C3)[C@H](C)[C@@H](O)CC1=O)[C@H](C)C[C@@H]2OC,8.96
